For 17 compounds, GI50 and TGI results are on record in PubChem BioAssay (NCI).

Several values for one entry are separate records, joined by “and”; a condition that tells them apart may be missing. Equal entries are not always repeated.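 Briefly, cells in 96-well plates were exposed to five compound concentrations for 48 h, and endpoints were estimated by linear interpolation. GI50: concentration for 50% inhibition of growth. TGI is the concentration that stops growth completely.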

In the first experiment the test system is MOLT-4 leukemia. As to the kind of experiment: NCI-60 cell line screen, 48 h.
For `CSc1ccc(C2=Nn3c(nnc3-c3ccc(F)c(Cl)c3)SC2)cc1`, the GI50 was 7.2 µM and the TGI was above 100 µM.
Turning to `CNC(=O)Nc1ccc(-c2nc(N3CCOCC3)nc3c2cnn3C2CCOCC2)cc1`, the GI50 was 0.355 µM and the TGI is above 26.8 µM.
Regarding `NCCCCNCCCNC(=O)CNC(=O)CC(O)C(N)CCCC(NC(=O)C(CN)NC(=O)C(O)CNC(=O)CC(N)c1ccc(O)cc1)C(=O)O` (stereo unspecified), the TGI was above 10 µM.
With `N/C(=N\OC(=O)c1ccccc1)C(C(=O)NOC(=O)c1ccccc1)C1CCCCC1` (stereo unspecified), the GI50 is 6.62 µM and the TGI worked out at 49.8 µM.
`CCOc1ccc(N=Nc2ccc3cc(/C(C)=N/NC(=O)/C(C#N)=C\c4ccc(N(CCC#N)CCC#N)cc4)c(=O)oc3c2)cc1` registered a TGI above 10 µM.
With `O=C(O)c1cc[c]([Hg][S]c2ncnc3nc[nH]c23)cc1`, the TGI came to 15.3 µM.
On the same count and under the same terms, the same measure for `CC(C)(C)OC(=O)NCC(C#N)CNC(=O)OC(C)(C)C`: above 100 µM.
Turning to `O=C(Nc1ccc(OC(F)(F)F)cc1)c1sccc1NCc1ccnc2ccccc12`, the GI50 was 3.09 µM and the TGI is above 31.6 µM.
Compound `CCN(CC)c1ccc(NC(=S)NN(C)C)cc1` registered a TGI above 10 µM.
With `Nc1cc(N)c2nc(-c3ccccc3)c(Oc3ccc(F)cc3)nc2c1`, the GI50 is 6.58 µM and the TGI is above 100 µM.
The like results for `COc1ccc(-c2cc(-c3ccc(Cl)cc3)c(C#N)c(=O)n2CCCCC(=O)Nc2ccccc2N)cc1` were, in that order, 4.89 µM and above 100 µM.
Consider `CN1CCCN(CCNc2nccc(-c3c(-c4cccc(O)c4)nc4sccn34)n2)S1(=O)=O`, for which the GI50 was 14.5 µM and 10.2 µM; the TGI is 52.1 µM and 41.2 µM.
For the compound `CCOC(=O)c1c(NC(=O)c2ccc(C(C)C)cc2)sc2c(CN(C)C)c(O)ccc12`, the GI50 is 2.05 µM and the TGI worked out at 4.92 µM.
`COc1ccc(C(=O)N2c3ccccc3Sc3ccccc32)c(F)c1`: the GI50 was 0.715 µM and the TGI was above 100 µM.
In the same order, the values of `CC1(C)N=C(N)N=C(N)N1c1ccc(CCc2ccccc2)c(Cl)c1` are 0.0648 µM and 13.5 µM.
As for `Cc1ccc(C(=O)Nc2ccc(CN3CCN(C)CC3)c(C(F)(F)F)c2)cc1C#Cc1cnc(N)c2ccc(F)cc12`, the GI50 is 0.0921 µM and the TGI was 0.671 µM.
In the case of `CC1(C)CCC(C)(C)c2cc(C(=O)Nc3ccc(C(=O)O)cc3)ccc21`, the TGI was above 76.8 µM.

For a further experiment, the system named is UACC-62 melanoma. As to the kind of experiment: NCI-60 cell line screen, 48 h.
As to `CSc1ccc(C2=Nn3c(nnc3-c3ccc(F)c(Cl)c3)SC2)cc1`, the GI50 was 2.04 µM and the TGI turned out to be 8.19 µM.
Take `CNC(=O)Nc1ccc(-c2nc(N3CCOCC3)nc3c2cnn3C2CCOCC2)cc1`: the GI50 is 0.182 µM and the TGI was 1.19 µM.
Compound `NCCCCNCCCNC(=O)CNC(=O)CC(O)C(N)CCCC(NC(=O)C(CN)NC(=O)C(O)CNC(=O)CC(N)c1ccc(O)cc1)C(=O)O` (stereo unspecified) showed a TGI above 10 µM.
Consider `N/C(=N\OC(=O)c1ccccc1)C(C(=O)NOC(=O)c1ccccc1)C1CCCCC1` (stereo unspecified), for which the GI50 was 11.4 µM and the TGI came to 32.9 µM.
Regarding `CCOc1ccc(N=Nc2ccc3cc(/C(C)=N/NC(=O)/C(C#N)=C\c4ccc(N(CCC#N)CCC#N)cc4)c(=O)oc3c2)cc1`, the TGI was above 10 µM.
As for `O=C(O)c1cc[c]([Hg][S]c2ncnc3nc[nH]c23)cc1`, the GI50 was 2.88 µM and the TGI turned out to be 15.4 µM.
The compound `CC(C)(C)OC(=O)NCC(C#N)CNC(=O)OC(C)(C)C` came in with a TGI above 100 µM.
For `O=C(Nc1ccc(OC(F)(F)F)cc1)c1sccc1NCc1ccnc2ccccc12`, the GI50 was 1.89 µM and the TGI was determined as 14.9 µM.
In turn, `CCN(CC)c1ccc(NC(=S)NN(C)C)cc1` came in with a TGI above 10 µM.
With `Nc1cc(N)c2nc(-c3ccccc3)c(Oc3ccc(F)cc3)nc2c1`, the GI50 is 15.8 µM and the TGI amounted to 33.2 µM.
As for `COc1ccc(-c2cc(-c3ccc(Cl)cc3)c(C#N)c(=O)n2CCCCC(=O)Nc2ccccc2N)cc1`, the GI50 is 3.29 µM and the TGI was found to be 13 µM.
With `CN1CCCN(CCNc2nccc(-c3c(-c4cccc(O)c4)nc4sccn34)n2)S1(=O)=O`, the GI50 was 0.0417 µM and 0.0537 µM; the TGI was 1.4 µM and 2.22 µM.
With `CCOC(=O)c1c(NC(=O)c2ccc(C(C)C)cc2)sc2c(CN(C)C)c(O)ccc12`, the GI50 is 1.82 µM and the TGI came out at 3.48 µM.
On to `COc1ccc(C(=O)N2c3ccccc3Sc3ccccc32)c(F)c1`, for which the GI50 was 0.382 µM and the TGI was above 100 µM.
As for `CC1(C)N=C(N)N=C(N)N1c1ccc(CCc2ccccc2)c(Cl)c1`, the GI50 was 0.0572 µM and the TGI is 11.7 µM.
Take `Cc1ccc(C(=O)Nc2ccc(CN3CCN(C)CC3)c(C(F)(F)F)c2)cc1C#Cc1cnc(N)c2ccc(F)cc12`: the GI50 was 0.329 µM and the TGI was 1.02 µM.
For the compound `CC1(C)CCC(C)(C)c2cc(C(=O)Nc3ccc(C(=O)O)cc3)ccc21`, the TGI is 41.2 µM.

In a further experiment the test system is NCI/ADR-RES ovarian. As to the kind of experiment: NCI-60 cell line screen, 48 h.
As for `CSc1ccc(C2=Nn3c(nnc3-c3ccc(F)c(Cl)c3)SC2)cc1`, the GI50 was 5.17 µM and the TGI came to 22.6 µM.
The like results for `CNC(=O)Nc1ccc(-c2nc(N3CCOCC3)nc3c2cnn3C2CCOCC2)cc1` were, in that order, 0.511 µM and above 22.5 µM.
For `NCCCCNCCCNC(=O)CNC(=O)CC(O)C(N)CCCC(NC(=O)C(CN)NC(=O)C(O)CNC(=O)CC(N)c1ccc(O)cc1)C(=O)O` (stereo unspecified), the TGI is above 10 µM.
For `N/C(=N\OC(=O)c1ccccc1)C(C(=O)NOC(=O)c1ccccc1)C1CCCCC1` (stereo unspecified), the GI50 was 3.79 µM and the TGI came out at 16 µM.
For `CCOc1ccc(N=Nc2ccc3cc(/C(C)=N/NC(=O)/C(C#N)=C\c4ccc(N(CCC#N)CCC#N)cc4)c(=O)oc3c2)cc1`, the TGI was above 10 µM.
With `O=C(O)c1cc[c]([Hg][S]c2ncnc3nc[nH]c23)cc1`, the GI50 was 3.75 µM and the TGI was found to be 30.6 µM.
For `CC(C)(C)OC(=O)NCC(C#N)CNC(=O)OC(C)(C)C`, the TGI was above 100 µM.
For `O=C(Nc1ccc(OC(F)(F)F)cc1)c1sccc1NCc1ccnc2ccccc12`, the GI50 was 2.81 µM and the TGI is above 100 µM.
With `CCN(CC)c1ccc(NC(=S)NN(C)C)cc1`, the TGI is above 10 µM.
